Tested on: T-47D spheroids with HUVEC/MSC, viability
Assay: Anticancer human tumor T-47D cell line growth inhibition [PI3K];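 note: spheroids exposed to agents for seven days before reading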;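 for viability, T/C: percent of DMSO vehicle control luminescence so 100% = untreated growth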
Conditions: for IC50: curve of first compound; for viability, T/C: stronger effect = lower value
In short: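 Complex 3D spheroids (cancer cells + endothelial HUVEC + mesenchymal stem cells); drug pairs of targeted agent x inavolisib/alpelisib/duvelisib/copanlisib; half-log series from ~Cmax, max 10 microM if Cmax unknown; endpoint viability.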

[1] = second compound 0.0316 µM, first compound 0.000316 µM
[2] = second compound 0.0316 µM, first compound 0.001 µM
[3] = second compound 0.0316 µM, first compound 0.00316 µM
[4] = second compound 0.0316 µM, first compound 0.01 µM
[5] = second compound 0.0316 µM, first compound 0.0316 µM
[6] = second compound 0.0316 µM, first compound 0.1 µM
[7] = second compound 0.1 µM, first compound 0.000316 µM
[8] = second compound 0.1 µM, first compound 0.001 µM
[9] = second compound 0.1 µM, first compound 0.00316 µM
[10] = second compound 0.1 µM, first compound 0.01 µM
[11] = second compound 0.1 µM, first compound 0.0316 µM
[12] = second compound 0.1 µM, first compound 0.1 µM
[13] = second compound 0.316 µM, first compound 0.000316 µM
[14] = second compound 0.316 µM, first compound 0.001 µM
[15] = second compound 0.316 µM, first compound 0.00316 µM
[16] = second compound 0.316 µM, first compound 0.01 µM
[17] = second compound 0.316 µM, first compound 0.0316 µM
[18] = second compound 0.316 µM, first compound 0.1 µM
[19] = second compound 1 µM, first compound 0.000316 µM
[20] = second compound 1 µM, first compound 0.001 µM
[21] = second compound 1 µM, first compound 0.00316 µM
[22] = second compound 1 µM, first compound 0.01 µM
[23] = second compound 1 µM, first compound 0.0316 µM
[24] = second compound 1 µM, first compound 0.1 µM
[25] = second compound 3.16 µM, first compound 0.000316 µM
[26] = second compound 3.16 µM, first compound 0.001 µM
[27] = second compound 3.16 µM, first compound 0.00316 µM
[28] = second compound 3.16 µM, first compound 0.01 µM
[29] = second compound 3.16 µM, first compound 0.0316 µM
[30] = second compound 3.16 µM, first compound 0.1 µM
[31] = second compound 10 µM, first compound 0.000316 µM
[32] = second compound 10 µM, first compound 0.001 µM
[33] = second compound 10 µM, first compound 0.00316 µM
[34] = second compound 10 µM, first compound 0.01 µM
[35] = second compound 10 µM, first compound 0.0316 µM
[36] = second compound 10 µM, first compound 0.1 µM
[37] = second compound 0.0316 µM, first compound 0.316 µM
[38] = second compound 0.0316 µM, first compound 1 µM
[39] = second compound 0.0316 µM, first compound 3.16 µM
[40] = second compound 0.0316 µM, first compound 10 µM
[41] = second compound 0.1 µM, first compound 0.316 µM
[42] = second compound 0.1 µM, first compound 1 µM
[43] = second compound 0.1 µM, first compound 3.16 µM
[44] = second compound 0.1 µM, first compound 10 µM
[45] = second compound 0.316 µM, first compound 0.316 µM
[46] = second compound 0.316 µM, first compound 1 µM
[47] = second compound 0.316 µM, first compound 3.16 µM
[48] = second compound 0.316 µM, first compound 10 µM
[49] = second compound 1 µM, first compound 0.316 µM
[50] = second compound 1 µM, first compound 1 µM
[51] = second compound 1 µM, first compound 3.16 µM
[52] = second compound 1 µM, first compound 10 µM
[53] = second compound 3.16 µM, first compound 0.316 µM
[54] = second compound 3.16 µM, first compound 1 µM
[55] = second compound 3.16 µM, first compound 3.16 µM
[56] = second compound 3.16 µM, first compound 10 µM
[57] = second compound 10 µM, first compound 0.316 µM
[58] = second compound 10 µM, first compound 1 µM
[59] = second compound 10 µM, first compound 3.16 µM
[60] = second compound 10 µM, first compound 10 µM

CC(C)n1nc(-c2ccc3oc(N)nc3c2)c2c(N)ncnc21 + Cc1nc(NC(=O)N2CCCC2C(N)=O)sc1-c1ccnc(C(C)(C)C(F)(F)F)c1
IC50 (second compound 0.0316 µM): 0.0726 µM
IC50 (second compound 0.1 µM): 0.0608 µM
IC50 (second compound 0.316 µM): 0.0525 µM
IC50 (second compound 1 µM): 0.0267 µM
IC50 (second compound 3.16 µM): 0.00907 µM
IC50 (second compound 10 µM): < 0.000316 µM
viability, T/C [1]: 106%
viability, T/C [2]: 94.2%
viability, T/C [3]: 95.9%
viability, T/C [4]: 95.9%
viability, T/C [5]: 78.8%
viability, T/C [6]: 38.7%
viability, T/C [7]: 110%
viability, T/C [8]: 87.2%
viability, T/C [9]: 99.3%
viability, T/C [10]: 109%
viability, T/C [11]: 79%
viability, T/C [12]: 27.9%
viability, T/C [13]: 101%
viability, T/C [14]: 98.9%
viability, T/C [15]: 82.3%
viability, T/C [16]: 92.7%
viability, T/C [17]: 67.4%
viability, T/C [18]: 26.9%
viability, T/C [19]: 89%
viability, T/C [20]: 93.2%
viability, T/C [21]: 86.3%
viability, T/C [22]: 70.7%
viability, T/C [23]: 47%
viability, T/C [24]: 21.2%
viability, T/C [25]: 62.9%
viability, T/C [26]: 68.3%
viability, T/C [27]: 64.6%
viability, T/C [28]: 42.7%
viability, T/C [29]: 33.1%
viability, T/C [30]: 6.08%
viability, T/C [31]: 37.5%
viability, T/C [32]: 40.2%
viability, T/C [33]: 33.1%
viability, T/C [34]: 21.7%
viability, T/C [35]: 12.8%
viability, T/C [36]: 2.67%

CC1(C)CCC(CN2CCN(c3ccc(C(=O)NS(=O)(=O)c4ccc(NCC5CCOCC5)c([N+](=O)[O-])c4)c(Oc4cnc5[nH]ccc5c4)c3)CC2)=C(c2ccc(Cl)cc2)C1 + Cc1nc(NC(=O)N2CCCC2C(N)=O)sc1-c1ccnc(C(C)(C)C(F)(F)F)c1
IC50 (second compound 0.0316 µM): > 10 µM
IC50 (second compound 0.1 µM): > 10 µM
IC50 (second compound 0.316 µM): > 10 µM
IC50 (second compound 1 µM): > 10 µM
IC50 (second compound 3.16 µM): > 10 µM
IC50 (second compound 10 µM): < 0.0316 µM
viability, T/C [5]: 106%
viability, T/C [6]: 94.2%
viability, T/C [37]: 111%
viability, T/C [38]: 99.2%
viability, T/C [39]: 78.1%
viability, T/C [40]: 87.8%
viability, T/C [11]: 118%
viability, T/C [12]: 92.3%
viability, T/C [41]: 92.9%
viability, T/C [42]: 89.6%
viability, T/C [43]: 108%
viability, T/C [44]: 73.3%
viability, T/C [17]: 98.8%
viability, T/C [18]: 101%
viability, T/C [45]: 89.3%
viability, T/C [46]: 94.3%
viability, T/C [47]: 94%
viability, T/C [48]: 80.1%
viability, T/C [23]: 99.4%
viability, T/C [24]: 99.1%
viability, T/C [49]: 102%
viability, T/C [50]: 85.3%
viability, T/C [51]: 76.9%
viability, T/C [52]: 71.2%
viability, T/C [29]: 78.5%
viability, T/C [30]: 65.6%
viability, T/C [53]: 64.2%
viability, T/C [54]: 59.8%
viability, T/C [55]: 64.5%
viability, T/C [56]: 57.1%
viability, T/C [35]: 40.1%
viability, T/C [36]: 41.7%
viability, T/C [57]: 37%
viability, T/C [58]: 31.4%
viability, T/C [59]: 30.2%
viability, T/C [60]: 34.2%

CCCS(=O)(=O)Nc1ccc(F)c(C(=O)c2c[nH]c3ncc(-c4ccc(Cl)cc4)cc23)c1F + Cc1nc(NC(=O)N2CCCC2C(N)=O)sc1-c1ccnc(C(C)(C)C(F)(F)F)c1
IC50 (second compound 0.0316 µM): 9.2 µM
IC50 (second compound 0.1 µM): 8.1 µM
IC50 (second compound 0.316 µM): 7.63 µM
IC50 (second compound 1 µM): 7.35 µM
IC50 (second compound 3.16 µM): 4.41 µM
IC50 (second compound 10 µM): < 0.0316 µM
viability, T/C [5]: 95.4%
viability, T/C [6]: 92.7%
viability, T/C [37]: 100%
viability, T/C [38]: 94.4%
viability, T/C [39]: 108%
viability, T/C [40]: 46.1%
viability, T/C [11]: 93.1%
viability, T/C [12]: 92.5%
viability, T/C [41]: 107%
viability, T/C [42]: 91.4%
viability, T/C [43]: 85.9%
viability, T/C [44]: 41.7%
viability, T/C [17]: 99.8%
viability, T/C [18]: 93%
viability, T/C [45]: 89.3%
viability, T/C [46]: 90.5%
viability, T/C [47]: 76%
viability, T/C [48]: 41.7%
viability, T/C [23]: 83.5%
viability, T/C [24]: 82.3%
viability, T/C [49]: 81.5%
viability, T/C [50]: 78.3%
viability, T/C [51]: 78.4%
viability, T/C [52]: 39.7%
viability, T/C [29]: 75.3%
viability, T/C [30]: 76.9%
viability, T/C [53]: 79%
viability, T/C [54]: 81.5%
viability, T/C [55]: 56%
viability, T/C [56]: 35%
viability, T/C [35]: 35.3%
viability, T/C [36]: 40.7%
viability, T/C [57]: 41.2%
viability, T/C [58]: 37.8%
viability, T/C [59]: 38.3%
viability, T/C [60]: 32.8%

C[C@@H](NC(=O)c1ncnc(N)c1Cl)c1ncc(C(=O)Nc2cc(C(F)(F)F)c(Cl)cn2)s1 + Cc1nc(NC(=O)N2CCCC2C(N)=O)sc1-c1ccnc(C(C)(C)C(F)(F)F)c1
IC50 (second compound 0.0316 µM): > 10 µM
IC50 (second compound 0.1 µM): > 10 µM
IC50 (second compound 0.316 µM): > 10 µM
IC50 (second compound 1 µM): > 10 µM
IC50 (second compound 3.16 µM): > 10 µM
IC50 (second compound 10 µM): < 0.0316 µM
viability, T/C [5]: 108%
viability, T/C [6]: 99.6%
viability, T/C [37]: 88.5%
viability, T/C [38]: 87.2%
viability, T/C [39]: 88%
viability, T/C [40]: 102%
viability, T/C [11]: 109%
viability, T/C [12]: 80.1%
viability, T/C [41]: 105%
viability, T/C [42]: 80.6%
viability, T/C [43]: 93%
viability, T/C [44]: 99.5%
viability, T/C [17]: 94.3%
viability, T/C [18]: 99.5%
viability, T/C [45]: 109%
viability, T/C [46]: 86.8%
viability, T/C [47]: 97.7%
viability, T/C [48]: 97.3%
viability, T/C [23]: 88%
viability, T/C [24]: 86.7%
viability, T/C [49]: 90.4%
viability, T/C [50]: 91.4%
viability, T/C [51]: 95.6%
viability, T/C [52]: 100%
viability, T/C [29]: 78%
viability, T/C [30]: 69.3%
viability, T/C [53]: 68.1%
viability, T/C [54]: 64%
viability, T/C [55]: 74%
viability, T/C [56]: 73.2%
viability, T/C [35]: 36.7%
viability, T/C [36]: 37.1%
viability, T/C [57]: 41.8%
viability, T/C [58]: 36.7%
viability, T/C [59]: 40%
viability, T/C [60]: 46.6%

Cn1ncnc1[C@H]1c2n[nH]c(=O)c3cc(F)cc(c23)N[C@@H]1c1ccc(F)cc1 + Cc1nc(NC(=O)N2CCCC2C(N)=O)sc1-c1ccnc(C(C)(C)C(F)(F)F)c1
IC50 (second compound 0.0316 µM): > 0.1 µM
IC50 (second compound 0.1 µM): > 0.1 µM
IC50 (second compound 0.316 µM): > 0.1 µM
IC50 (second compound 1 µM): > 0.1 µM
IC50 (second compound 3.16 µM): > 0.1 µM
IC50 (second compound 10 µM): < 0.000316 µM
viability, T/C [1]: 105%
viability, T/C [2]: 103%
viability, T/C [3]: 99%
viability, T/C [4]: 99.9%
viability, T/C [5]: 86.8%
viability, T/C [6]: 98.8%
viability, T/C [7]: 106%
viability, T/C [8]: 96.3%
viability, T/C [9]: 95.5%
viability, T/C [10]: 106%
viability, T/C [11]: 99.5%
viability, T/C [12]: 86.7%
viability, T/C [13]: 105%
viability, T/C [14]: 97.5%
viability, T/C [15]: 105%
viability, T/C [16]: 87%
viability, T/C [17]: 94.5%
viability, T/C [18]: 86.5%
viability, T/C [19]: 101%
viability, T/C [20]: 89.3%
viability, T/C [21]: 85.1%
viability, T/C [22]: 89.4%
viability, T/C [23]: 87.7%
viability, T/C [24]: 90.5%
viability, T/C [25]: 65.1%
viability, T/C [26]: 70.8%
viability, T/C [27]: 63.4%
viability, T/C [28]: 63.6%
viability, T/C [29]: 71.5%
viability, T/C [30]: 69.2%
viability, T/C [31]: 39%
viability, T/C [32]: 34.8%
viability, T/C [33]: 36.8%
viability, T/C [34]: 34.1%
viability, T/C [35]: 32.9%
viability, T/C [36]: 38.9%

From PubChem BioAssay AID1963959 (Molecular Pharmacology Branch, DTP, NCI, 2024)
